Measurements as given in ChEMBL document CHEMBL1201862, “PubChem BioAssay data set” (2004).
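Briefly, cells in 96-well plates were exposed to five compound concentrations for 48 h, and endpoints were estimated by linear interpolation. Here, GI50 denotes the concentration required for 50% inhibition of growth.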 The source made the active and inactive calls. No stated cut-off is given here; in the data, active = GI50 up to about 1.1 µM and inactive = higher.

Key:
Experiment in all cases: NCI anticancer screen, dose series, 48 h
[1] = tested on: BT-549
[2] = tested on: CAKI-1
[3] = tested on: COLO 205
[4] = tested on: HCC 2998
[5] = tested on: Hs-578T
[6] = tested on: IGROV-1
[7] = tested on: K562
[8] = tested on: MCF7
[9] = tested on: MDA-MB-435
[10] = tested on: MDA-N
[11] = tested on: MOLT-4
[12] = tested on: NCI-H23
[13] = tested on: OVCAR-5
[14] = tested on: OVCAR-8
[15] = tested on: SF-295
[16] = tested on: SK-OV-3
[17] = tested on: SW-620
[18] = tested on: U-251
[19] = tested on: SNB-19

Row | Structure (SMILES) | GI50 [1] | GI50 [2] | GI50 [3] | GI50 [4] | GI50 [5] | GI50 [6] | GI50 [7] | GI50 [8] | GI50 [9] | GI50 [10] | GI50 [11] | GI50 [12] | GI50 [13] | GI50 [14] | GI50 [15] | GI50 [16] | GI50 [17] | GI50 [18] | GI50 [19]
1 | CCOP(=O)(CC1CC(O)(CNc2cc(Cl)nc(N)n2)C1)OCC (stereo not drawn) | > 100 µM (inactive) | > 100 µM (inactive) | > 100 µM (inactive) | > 100 µM (inactive) | > 100 µM (inactive) | > 100 µM (inactive) | > 100 µM (inactive) | > 100 µM (inactive) | > 100 µM (inactive) | > 100 µM (inactive) | > 100 µM (inactive) | > 100 µM (inactive) | > 100 µM (inactive) | > 100 µM (inactive) | > 100 µM (inactive) | > 100 µM (inactive) | > 100 µM (inactive) | > 100 µM (inactive) | –
2 | CC(C)C1(Cl)CCC2C3(C)CCCC(C)(C(=O)O)C3CC(Cl)C2(Cl)C1Cl (stereo not drawn) | 48.8 µM (inactive) | 43 µM (inactive) | 18 µM (inactive) | 27.4 µM (inactive) | 37.5 µM (inactive) | 54.7 µM (inactive) | 24.3 µM (inactive) | 30.5 µM (inactive) | 25.9 µM (inactive) | 32.4 µM (inactive) | 19.4 µM (inactive) | 54.2 µM (inactive) | 22.4 µM (inactive) | 38.7 µM (inactive) | – | – | 24.8 µM (inactive) | 20.7 µM (inactive) | 34.8 µM (inactive)
3 | O=C(NCCNCCNCCNC(=O)c1cc(-c2ccccc2)nc2ccccc12)c1cc(-c2ccccc2)nc2ccccc12 | 7.52 µM (inactive) | 15.3 µM (inactive) | 1.99 µM (inactive) | 1.71 µM (inactive) | 2.25 µM (inactive) | 2.52 µM (inactive) | 1.94 µM (inactive) | 2.04 µM (inactive) | 1.81 µM (inactive) | 1.6 µM (inactive) | 1.95 µM (inactive) | 3.15 µM (inactive) | 1.87 µM (inactive) | 2.08 µM (inactive) | 1.67 µM (inactive) | 3.02 µM (inactive) | 1.83 µM (inactive) | 1.73 µM (inactive) | 3.79 µM (inactive)
4 | c1cncc(CSc2ncnc3[nH]cnc23)c1 | > 100 µM (inactive) | > 100 µM (inactive) | > 100 µM (inactive) | > 100 µM (inactive) | > 100 µM (inactive) | > 100 µM (inactive) | > 100 µM (inactive) | > 100 µM (inactive) | > 100 µM (inactive) | > 100 µM (inactive) | > 100 µM (inactive) | > 100 µM (inactive) | > 100 µM (inactive) | > 100 µM (inactive) | > 100 µM (inactive) | > 100 µM (inactive) | > 100 µM (inactive) | > 100 µM (inactive) | > 100 µM (inactive)
5 | CC(C)(Cl)C(Cl)CC/C(CBr)=C(\Cl)CCl (stereo not drawn) | 1.84 µM (inactive) | 5.09 µM (inactive) | 4.89 µM (inactive) | 14.4 µM (inactive) | 5.32 µM (inactive) | 2.04 µM (inactive) | 0.678 µM (active) | 11 µM (inactive) | 3.36 µM (inactive) | 2.21 µM (inactive) | 0.491 µM (active) | 3.87 µM (inactive) | 14.7 µM (inactive) | 3.17 µM (inactive) | 16.3 µM (inactive) | 6 µM (inactive) | 1.96 µM (inactive) | 4.24 µM (inactive) | 17.6 µM (inactive)
6 | Nc1nc(Cl)c(CO)c(NCC2(CO)CC(CCc3ccccc3)C2)n1 (stereo not drawn) | 15.4 µM (inactive) | 37.8 µM (inactive) | 14.5 µM (inactive) | 33.3 µM (inactive) | > 10 µM (inactive) | > 10 µM (inactive) | 1.37 µM (inactive) | 14.3 µM (inactive) | 11.5 µM (inactive) | > 100 µM (inactive) | 2.1 µM (inactive) | 0.0951 µM (active) | 29.2 µM (inactive) | 12.7 µM (inactive) | 10.6 µM (inactive) | – | 19.6 µM (inactive) | 26.2 µM (inactive) | 61.5 µM (inactive)
7 | Cc1nnc2n(c1=O)CCCN2C | > 100 µM (inactive) | – | > 100 µM (inactive) | > 100 µM (inactive) | > 100 µM (inactive) | > 100 µM (inactive) | > 100 µM (inactive) | > 100 µM (inactive) | > 100 µM (inactive) | > 100 µM (inactive) | > 100 µM (inactive) | > 100 µM (inactive) | > 100 µM (inactive) | > 100 µM (inactive) | > 100 µM (inactive) | > 100 µM (inactive) | > 100 µM (inactive) | > 100 µM (inactive) | > 100 µM (inactive)
